The test system of data set [1] is NCI-H1975. Kind of data set: Antiproliferative activity against human NCI-H1975 cells harboring EGFR T790M/L858R mutant by MTT assay. The class given is functional, cell-based.
Another data set deals with NCI-H292. Description: Antiproliferative activity against human NCI-H292 cells harboring wild-type EGFR by MTT assay. In kind it is functional, cell-based.
Data set [2] can be described thus: Selectivity ratio of IC50 for antiproliferative activity against human NCI-H292 cells harboring wild-type EGFR to IC50 for antiproliferative activity against human NCI-H1975 cells harboring EGFR T790M/L858R mutant. In kind it is functional.
In data set [3] the test system is PC-9. Description: Antiproliferative activity against human PC-9 cells harboring EGFR L858R mutant by MTT assay. In kind it is functional, cell-based. Background: Tetrazolium dyes change colour on reduction, which living cells bring about.
A short description of data set [4]: Antiproliferative activity against human RPC9 cells. In kind it is functional, cell-based.
Data set [5] relates to PC-9. Kind of data set: Antiproliferative activity against human PC-9 cells. The class given is functional, cell-based.
Data set [6] is described as follows: Antiproliferative activity against human DiFi cells. The class given is functional, cell-based.
Data set [7] relates to NCI-H1975. Kind of data set: Antiproliferative activity against human NCI-H1975 cells. The class given is functional, cell-based.
Data set [8] in a line: Half life in Sprague-Dawley rat at 10 mg/kg, po administered as single dose. In kind it is ADME, organism-based. The conditions noted are these: in vivo.
The nature of data set [9]: MRT in Sprague-Dawley rat at 10 mg/kg, po administered as single dose. The conditions noted are these: in vivo. In kind it is ADME, organism-based.
Data set [10] can be described thus: AUC (0 to t) in Sprague-Dawley rat at 2 mg/kg, iv administered as single dose. In kind it is ADME, organism-based. Also on record: dose 2 mg/kg. The note with it: in vivo.
Data set [11] in a line: Oral bioavailability in Sprague-Dawley rat at 10 mg/kg administered as single dose. The note with it: in vivo. The class given is ADME, organism-based.
Data set [12] is described as follows: AUC (0 to t) in Sprague-Dawley rat at 10 mg/kg, po administered as single dose. Further details: dose 10 mg/kg. In kind it is ADME, organism-based. The note with it: in vivo.
Data set [13] in a line: AUC (0 to infinity) in Sprague-Dawley rat at 2 mg/kg, iv administered as single dose. The class given is ADME, organism-based. Further details: route intravenous, time infinity, dose 2 mg/kg. The conditions noted are these: in vivo.
A short description of data set [14]: Cmax in Sprague-Dawley rat at 10 mg/kg, po administered as single dose. In kind it is ADME, organism-based. Further details: route oral, dose 10 mg/kg. The note with it: in vivo.
Data set [15] is described as follows: Cmax in Sprague-Dawley rat at 2 mg/kg, iv administered as single dose. In kind it is ADME, organism-based. Also on record: route intravenous, dose 2 mg/kg. The note with it: in vivo.
A short description of data set [16]: Half life in Sprague-Dawley rat at 2 mg/kg, iv administered as single dose. The class given is ADME, organism-based. The note with it: in vivo.
Data set [17] is described as follows: Tmax in Sprague-Dawley rat at 10 mg/kg, po administered as single dose. The note with it: in vivo. In kind it is ADME, organism-based.
Data set [18] is described as follows: Clearance in Sprague-Dawley rat at 2 mg/kg, iv administered as single dose. In kind it is ADME, organism-based. The conditions noted are these: in vivo.
The nature of data set [19]: AUC (0 to infinity) in Sprague-Dawley rat at 10 mg/kg, po administered as single dose. In kind it is ADME, organism-based. Further details: time infinity, route oral, dose 10 mg/kg. The note with it: in vivo.
Data set [20] can be described thus: MRT in Sprague-Dawley rat at 2 mg/kg, iv administered as single dose. The class given is ADME, organism-based. The note with it: in vivo.
The nature of data set [21]: Cytotoxicity against HEK293-A cells assessed as reduction in cell viability by MTT assay. In kind it is cell-based. The conditions noted are these: Homo sapiens.
For data set [22], the system named is NCI-H1975. Description: Antitumor activity against human NCI-H1975 cells harboring EGFR T790M/L858R mutant xenografted in nude mouse assessed as tumor volume at 15 mg/kg, po administered once daily for 7 days (reference value: 843 mm3). In kind it is functional. The conditions noted are these: time 7 day. Background: Xenograft models place foreign cells or tissue in a host animal.

The next data set concerns HK-2. Description: Cytotoxicity against HK-2 cells assessed as reduction in cell viability by MTT assay. In kind it is cell-based. The conditions noted are these: Homo sapiens.
Data set [23] can be described thus: Cytotoxicity against HLF cells assessed as reduction in cell viability by MTT assay. The conditions noted are these: Homo sapiens. The class given is cell-based.
Data set [24] has as its system NCI-H1975. Kind of data set: Antitumor activity against human NCI-H1975 cells harboring EGFR T790M/L858R mutant xenografted in nude mouse assessed as tumor growth inhibition at 15 mg/kg, po administered once daily for 7 days relative to control. In kind it is functional. The conditions noted are these: time 7 day.
A further data set concerns SK-BR-3. Kind of data set: Antiproliferative activity against human SK-BR-3 cells. In kind it is functional, cell-based.
A further data set has as its system BT-474. Description: Antiproliferative activity against human BT-474 cells. In kind it is functional, cell-based.

A word on the IC50: it is the concentration needed to halve the response being measured. The half-life is how long it takes for the measured level to halve. Low values mean rapid decline, high ones slow decline. As a reminder, the MRT is the average time that molecules of a dose stay in the body. As a reminder, the AUC(0-t) is exposure summed from dosing to a finite time, without extrapolation to infinity. Broadly, the bioavailability is the share of a dose that reaches the circulation, judged against a reference dose that is usually intravenous. A low value points to little systemic uptake. A word on the AUC(0-inf): it is total exposure, with the tail of the curve extrapolated. The Cmax is the highest concentration seen after dosing. For orientation: Tmax means the time from dosing to the highest level. Broadly, the clearance is a measure of how efficiently the substance is removed, as volume per time. Low readings indicate a low capacity for elimination, high ones a high capacity for elimination. What is called TGI is how far tumour growth fell short of that in controls.

As to `C=CC(=O)Nc1cc(Nc2nccc(-c3cn(C4CC4)c4ccccc34)n2)c(OC)cc1SCCN(C)C`, the IC50 was 0.021 µM in the data set on NCI-H1975 [1], 0.674 µM in the data set on NCI-H292 and 0.044 µM in the data set on PC-9 [3]. For the same compound, the “Ratio IC50” value in data set [2] was 32.1.

On to `C=CC(=O)Nc1cc(Nc2nccc(-c3cn(C4CC4)c4ccccc34)n2)c(OC)cc1N(C)CCO`, for which the IC50 with NCI-H1975 [1] worked out at 0.074 µM; in the data set with NCI-H292, 1.69 µM; in the data set with PC-9 [3], 0.064 µM. In addition, the “Ratio IC50” value in data set [2] turned out to be 22.9.

As to `CN(C)C/C=C/C(=O)Nc1cc2c(Nc3ccc(F)c(Cl)c3)ncnc2cc1O[C@H]1CCOC1` [AFATINIB], the IC50 in [4] came out at 0.164 µM; in the data set with PC-9 [5], 0.0003 µM.

On to `C=CC(=O)Nc1cc(Nc2nccc(-c3cn(C4CC4)c4ccccc34)n2)c(OC)cc1OCC[S+](C)[O-]` (stereo not drawn), for which the IC50 was 0.544 µM in the data set on NCI-H1975 [1], 4.81 µM in the data set on NCI-H292 and 0.435 µM in the data set on PC-9 [3]. For the same compound, the “Ratio IC50” value in data set [2] was 8.8.

On to `C=CC(=O)Nc1cc(Nc2nccc(-c3cn(C4CC4)c4ccccc34)n2)c(OC)cc1N1CCSCC1`, for which the figures for the IC50 in the data set with NCI-H1975 [1], in the data set on NCI-H292 and with PC-9 [3] were 0.333 µM, greater than 10 µM and 0.734 µM, respectively. The “Ratio IC50” value in [2] was greater than 30.

`C=CC(=O)Nc1cc(Nc2nccc(-c3cn(C4CC4)c4ccccc34)n2)c(OC)cc1OCCCSC`: the IC50 with NCI-H1975 [1] was 1.12 µM; in the data set on NCI-H292, greater than 10 µM; with PC-9 [3], 2.33 µM. In data set [2], the “Ratio IC50” value is given as greater than 8.9.

In the case of `C=CC(=O)Nc1cc(Nc2nccc(-c3cn(C4CC4)c4ccccc34)n2)c(OC)cc1OCCN(C)C`, the IC50 in the data set on NCI-H1975 [1] was 0.008 µM; with NCI-H292, 0.432 µM; in the data set on PC-9 [3] it was 0.005 µM. Besides, in [2], the “Ratio IC50” value stood at 54.

For the compound `C=CC(=O)Nc1cc(Nc2nccc(-c3cn(C4CC4)c4ccccc34)n2)c(OC)cc1OCCSC`, the figures for the IC50 with NCI-H1975 [1], with NCI-H292 and in the data set on PC-9 [3] were 0.543 µM, 9.77 µM and 0.648 µM, respectively. The “Ratio IC50” value in [2] was 18.

With `C=CC(=O)Nc1cc(Nc2nccc(-c3cn(C4CC4)c4ccccc34)n2)c(OC)cc1N(C)CCSC`, the IC50 in the data set with NCI-H1975 [1] was determined as 1.3 µM; in the data set on NCI-H292 it was 2.63 µM; with PC-9 [3] it was 1.32 µM. For the same compound, in data set [2], the “Ratio IC50” value turned out to be 2.

`C#Cc1cccc(Nc2ncnc3cc(OCCOC)c(OCCOC)cc23)c1` [ERLOTINIB] returned a 50% inhibitory concentration (IC50) in data set [6] of 0.02 µM.

On to `C=CC(=O)Nc1cc(Nc2ncc(Cl)c(-c3cn(C4CC4)c4ccccc34)n2)c(OC)cc1[S+]([O-])CCN(C)C` (stereo not drawn), for which the IC50 in the data set on NCI-H1975 [1] turned out to be 0.009 µM; in the data set on NCI-H292 it was 0.156 µM; in the data set with PC-9 [3], 0.005 µM. Besides, in [2], the “Ratio IC50” value stood at 17.3.

Consider `C=CC(=O)Nc1cc(Nc2ncc(Cl)c(-c3cn(C4CC4)c4ccccc34)n2)c(OC)cc1SCCN(C)C`, for which the IC50 amounted to 0.008 µM in the data set on NCI-H1975 [1], 0.157 µM with NCI-H292 and 0.009 µM in the data set on PC-9 [3]. The “Ratio IC50” value in data set [2] came to 19.6.

For `C=CC(=O)Nc1cccc(Nc2nc(Nc3ccc(N4CCN(C(C)=O)CC4)cc3OC)ncc2C(F)(F)F)c1` [ROCILETINIB], the IC50 was determined as 0.084 µM with PC-9 [5] and 0.023 µM in the data set with NCI-H1975 [7].

For the compound `C=CC(=O)Nc1cc(Nc2nccc(-c3cn(C)c4ccccc34)n2)c(OC)cc1[S+]([O-])CCN(C)C` (stereo not drawn), the half-life in data set [8] is 1.43 h; in data set [16] it was 0.62 h. Moreover, the MRT in data set [9] is 2.07 h; in [20], 0.89 h. Also, the area under the curve AUC(0-t) is 402 ng·h/mL in data set [10] and 635 ng·h/mL in data set [12]. For the same compound, in data set [11], the bioavailability is 31.6%. Besides, the figures for the AUC(0-inf) in data set [13] and in data set [19] were 406 ng·h/mL and 652 ng·h/mL, respectively. In addition, the results for the Cmax in data set [14] and in data set [15] were 275 ng/mL and 789 ng/mL, respectively. Moreover, in [17], the Tmax turned out to be 1 h. This compound gave a clearance in data set [18] of 82.2 mL/min/kg.

Take `C=CC(=O)Nc1cc(Nc2nccc(-c3cn(C4CC4)c4ccccc34)n2)c(OC)cc1OCCC[S+](C)[O-]` (stereo not drawn): the concentration for half-maximal inhibition (IC50) was determined as 0.445 µM with NCI-H1975 [1], 3.76 µM with NCI-H292 and 0.203 µM in the data set with PC-9 [3]. Besides, the “Ratio IC50” value in data set [2] is 8.5.

For the compound `C=CC(=O)Nc1cccc(Oc2nc(Nc3ccc(N4CCN(C)CC4)cc3OC)ncc2Cl)c1`, the IC50 with PC-9 [5] was 0.036 µM; with NCI-H1975 [7], 0.047 µM.

As to `C=CC(=O)Nc1cc(Nc2nccc(-c3cn(C)c4ccccc34)n2)c(OC)cc1N(C)CCN(C)C` [OSIMERTINIB], the IC50 in [21] worked out at 2.25 µM; in the data set on NCI-H1975 [1] it was […]; in the data set on NCI-H292 it was 0.924 µM; with HK-2 it was 2.72 µM; in data set [23], 3.35 µM; in the data set with PC-9 [3], […]. In addition, in the data set with NCI-H1975 [22], the Activity turned out to be 21 mm3. The TGI in the data set with NCI-H1975 [24] is 97.64%.

As to `COc1cc2ncnc(Nc3ccc(F)c(Cl)c3)c2cc1NC(=O)/C=C/CN1CCCCC1` [DACOMITINIB ANHYDROUS], the IC50 with SK-BR-3 turned out to be 0.015 µM; with BT-474, 0.018 µM.

With `C=CC(=O)Nc1cc(Nc2nccc(-c3cn(C4CC4)c4ccccc34)n2)c(OC)cc1N(C)CC[S+](C)[O-]` (stereo not drawn), the IC50 in the data set on NCI-H1975 [1] stood at 0.411 µM; in the data set on NCI-H292 it was 1.14 µM; in the data set on PC-9 [3], 0.261 µM. For the same compound, the “Ratio IC50” value in [2] came out at 2.8.

The values above are taken from ChEMBL document CHEMBL4706659, “Design, synthesis and biological evaluation of novel 2,4-diaryl pyrimidine derivatives as selective EGFR inhibitors” (Eur J Med Chem, 2021).
